From ChEMBL document CHEMBL5236572, “Bioactive Aurones, Indanones, and Other Hemiindigoid Scaffolds: Medicinal Chemistry and Photopharmacology Perspectives” (J Med Chem, 2022)
pIC50, pKi: −log10 of the molar value. Values after ≈ are worked out from the molar mass of the structure shown.

How the values were obtained:
Tubulin [1] = target: Tubulin (Sus scrofa, UniProt P02554+P02550); assay: Inhibition of porcine brain tubulin polymerization preincubated for 1 mins followed by GTP addition and measured for 60 mins at 1 min interval by fluorescence assay
HeLa = assay: Antiproliferative activity against human HeLa cells assessed as reduction in cell viability incubated for 48 hrs by MTT assay; assay type: functional, cell-based
A549 [2] = assay: Antiproliferative activity against human A549 cells assessed as reduction in cell viability incubated for 48 hrs by MTT assay; assay type: functional, cell-based; conditions: A549, 48 h
Bel-7402 = assay: Antiproliferative activity against human Bel-7402 cells assessed as reduction in cell viability incubated for 48 hrs by MTT assay; assay type: functional, cell-based; conditions: Bel-7402, 48 h
PC-3 = assay: Antiproliferative activity against human PC-3 cells assessed as reduction in cell viability incubated for 48 hrs by MTT assay; assay type: functional, cell-based; conditions: PC-3, 48 h
MDA-MB-231 = assay: Antiproliferative activity against human MDA-MB-231 cells assessed as reduction in cell viability incubated for 48 hrs by MTT assay; assay type: functional, cell-based; conditions: MDA-MB-231, 48 h
[3] = target: Glycogen synthase kinase-3 beta (Homo sapiens, UniProt P49841); assay: Inhibition of recombinant GSK-3beta (unknown origin) using GS peptide as substrate in presence of ATP incubated for 1 hrs by ADP-Glo kinase assay
Chain of Glycogen synthase kinase-3 beta (P49841 whole entry): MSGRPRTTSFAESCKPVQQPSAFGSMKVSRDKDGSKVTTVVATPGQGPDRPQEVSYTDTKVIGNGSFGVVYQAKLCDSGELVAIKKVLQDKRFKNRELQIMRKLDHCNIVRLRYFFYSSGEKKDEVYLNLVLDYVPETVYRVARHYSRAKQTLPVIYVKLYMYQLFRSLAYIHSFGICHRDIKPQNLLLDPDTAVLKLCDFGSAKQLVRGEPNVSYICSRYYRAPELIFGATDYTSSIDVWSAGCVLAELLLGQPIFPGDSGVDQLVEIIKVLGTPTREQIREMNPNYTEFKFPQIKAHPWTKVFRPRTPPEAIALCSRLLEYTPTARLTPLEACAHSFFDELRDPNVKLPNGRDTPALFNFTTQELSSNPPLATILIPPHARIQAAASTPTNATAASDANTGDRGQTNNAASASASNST

[4] = target: Serine/threonine-protein kinase pim-1 (Homo sapiens, UniProt P11309); assay: Inhibition of PIM1 (unknown origin) using poly-Glu-Tyr (4:1) as substrate in presence of [gamma-33P-ATP] incubated for 2 hrs by radiometric kinase assay
Chain of Serine/threonine-protein kinase pim-1 (P11309 whole entry): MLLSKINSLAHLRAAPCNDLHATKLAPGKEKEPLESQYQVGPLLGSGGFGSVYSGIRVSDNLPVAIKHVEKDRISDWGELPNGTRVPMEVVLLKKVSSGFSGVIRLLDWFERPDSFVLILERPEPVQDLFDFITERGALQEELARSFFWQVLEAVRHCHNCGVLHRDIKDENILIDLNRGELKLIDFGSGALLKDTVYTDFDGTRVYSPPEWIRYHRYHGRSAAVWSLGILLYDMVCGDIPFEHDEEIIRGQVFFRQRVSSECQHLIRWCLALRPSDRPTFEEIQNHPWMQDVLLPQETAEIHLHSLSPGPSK

[5] = Inhibition of Saccharomyces cerevisiae full-length ai5gamma intron self-splicing by fluorimetric assay
Candida parapsilosis = assay: Antifungal activity against Candida parapsilosis assessed as reduction in fungal growth; assay type: functional; conditions: Lodderomyces parapsilosis
Tyrosinase [6] = target: T1, Tyrosinase (Agaricus bisporus, UniProt O42713); assay: Inhibition of mushroom tyrosinase using L-DOPA as substrate preincubated for 10 mins followed by substrate addition and measured after 1 mins by spectrophotometric analysis
T1 sequence (O42713 whole entry): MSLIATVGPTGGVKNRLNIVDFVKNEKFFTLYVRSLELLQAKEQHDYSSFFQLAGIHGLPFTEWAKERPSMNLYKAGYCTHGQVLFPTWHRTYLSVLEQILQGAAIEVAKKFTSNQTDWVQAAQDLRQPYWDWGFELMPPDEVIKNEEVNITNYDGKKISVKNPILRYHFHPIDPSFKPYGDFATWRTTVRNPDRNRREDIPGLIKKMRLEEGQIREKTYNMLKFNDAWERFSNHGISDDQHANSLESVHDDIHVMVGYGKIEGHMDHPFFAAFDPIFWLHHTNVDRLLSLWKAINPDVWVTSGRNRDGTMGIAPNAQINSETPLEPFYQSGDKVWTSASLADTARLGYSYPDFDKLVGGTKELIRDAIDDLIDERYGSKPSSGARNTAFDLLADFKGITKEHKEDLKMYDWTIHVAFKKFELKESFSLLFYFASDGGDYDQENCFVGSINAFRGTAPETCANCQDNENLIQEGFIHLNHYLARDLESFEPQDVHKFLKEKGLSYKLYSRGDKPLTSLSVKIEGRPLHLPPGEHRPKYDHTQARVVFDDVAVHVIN

[7] = target: T2, Amine oxidase [flavin-containing] A (Homo sapiens, UniProt P21397); assay: Inhibition of recombinant human MAO-A assessed as inhibition of 4-hydroxyquinoline formation using kynuramine as substrate incubated for 20 mins by fluorescence assay
T2 sequence (P21397 whole entry): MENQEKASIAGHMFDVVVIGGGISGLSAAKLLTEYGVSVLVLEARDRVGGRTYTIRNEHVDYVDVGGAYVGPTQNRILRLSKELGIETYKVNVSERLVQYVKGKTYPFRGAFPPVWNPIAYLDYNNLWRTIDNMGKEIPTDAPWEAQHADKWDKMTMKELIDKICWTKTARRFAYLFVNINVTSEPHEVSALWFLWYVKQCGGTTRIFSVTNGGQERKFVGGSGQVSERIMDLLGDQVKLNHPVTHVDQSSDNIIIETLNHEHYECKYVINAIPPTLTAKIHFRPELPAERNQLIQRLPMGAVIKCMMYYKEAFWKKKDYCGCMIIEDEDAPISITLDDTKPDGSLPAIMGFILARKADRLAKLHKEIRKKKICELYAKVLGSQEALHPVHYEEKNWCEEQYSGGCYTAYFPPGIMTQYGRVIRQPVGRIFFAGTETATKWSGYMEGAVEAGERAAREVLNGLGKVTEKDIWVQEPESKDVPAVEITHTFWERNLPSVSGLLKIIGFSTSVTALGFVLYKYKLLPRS

[8] = target: T3, Amine oxidase [flavin-containing] B (Homo sapiens, UniProt P27338); assay: Inhibition of recombinant human MAO-B assessed as inhibition of 4-hydroxyquinoline formation using kynuramine as substrate incubated for 20 mins by fluorescence assay
T3 sequence (P27338 whole entry): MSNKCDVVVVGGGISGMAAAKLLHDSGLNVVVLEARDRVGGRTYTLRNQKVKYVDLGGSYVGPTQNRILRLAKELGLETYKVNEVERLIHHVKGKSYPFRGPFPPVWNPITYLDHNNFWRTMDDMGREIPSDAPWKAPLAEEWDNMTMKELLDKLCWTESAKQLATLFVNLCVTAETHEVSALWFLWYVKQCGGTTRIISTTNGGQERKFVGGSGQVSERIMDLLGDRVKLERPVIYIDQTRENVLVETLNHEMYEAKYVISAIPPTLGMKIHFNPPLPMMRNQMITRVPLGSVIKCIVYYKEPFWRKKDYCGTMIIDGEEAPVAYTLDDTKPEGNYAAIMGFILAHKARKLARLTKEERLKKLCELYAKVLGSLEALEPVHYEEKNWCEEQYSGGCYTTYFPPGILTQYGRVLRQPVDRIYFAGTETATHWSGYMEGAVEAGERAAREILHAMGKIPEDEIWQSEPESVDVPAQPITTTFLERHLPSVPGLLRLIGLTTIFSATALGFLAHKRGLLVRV

THP-1 = assay: Antiproliferative activity against human THP-1 cells assessed as reduction in cell viability incubated for 48 hrs by sulforhodamine assay; assay type: functional, cell-based; conditions: THP-1, 48 h
HCT-116 = assay: Antiproliferative activity against human HCT-116 cells assessed as reduction in cell viability incubated for 48 hrs by sulforhodamine assay; assay type: functional, cell-based; conditions: HCT-116, 48 h
MCF7 = assay: Antiproliferative activity against human MCF7 cells assessed as reduction in cell viability incubated for 48 hrs by sulforhodamine assay; assay type: functional, cell-based; conditions: MCF7, 48 h
T47D = assay: Antiproliferative activity against human T47D cells assessed as reduction in cell viability incubated for 48 hrs by sulforhodamine assay; assay type: functional, cell-based
A549 [9] = assay: Antiproliferative activity against human A549 cells assessed as reduction in cell viability incubated for 48 hrs by sulforhodamine assay; assay type: functional, cell-based; conditions: A549, 48 h
NCI/ADR-RES = assay: Antiproliferative activity against multi drug resistant human NCI-ADR-RES cells assessed as inhibition of cell proliferation incubated for 72 hrs by MTT assay; assay type: functional, cell-based
MES-SA/Dx5 = assay: Antiproliferative activity against multi drug resistant human MES-SA/Dx5 cells assessed as inhibition of cell proliferation incubated for 72 hrs by MTT assay; assay type: functional, cell-based; conditions: MES-SA/Dx5, 72 h
[10] = Antiproliferative activity against doxorubicin resistant human MDA-MB-231-Dox cells assessed as inhibition of cell proliferation incubated for 72 hrs by MTT assay; assay type: functional, cell-based
HL60/ADR = assay: Antiproliferative activity against drug resistant human HL60/ADR cells assessed as inhibition of cell proliferation incubated for 72 hrs by MTT assay; assay type: functional, cell-based
[11] = Antiproliferative activity against multidrug resistant human CEM/VLB100 cells assessed as inhibition of cell proliferation incubated for 72 hrs by MTT assay; assay type: functional, cell-based; conditions: CEM/VLB100, 72 h
KB 3-1 = assay: Antiproliferative activity against multidrug resistant human KB-3-1 cells assessed as inhibition of cell proliferation incubated for 72 hrs by MTT assay; assay type: functional, cell-based; conditions: KB 3-1, 72 h
[12] = Antiproliferative activity against multidrug resistant human MV522/MDR1 cells assessed as inhibition of cell proliferation incubated for 72 hrs by MTT assay; assay type: functional, cell-based; conditions: MV522/MDR1, 72 h
Tubulin [13] = target: Tubulin (Bos taurus, UniProt Q6B856+Q862L2+Q862F3); assay: Inhibition of bovine brain tubulin polymerization preincubated for 30 mins followed by GTP addition and measured after 20 mins by spectrophotometric analysis
Tyrosinase [14] = target: T1, Tyrosinase; assay: Inhibition of Agaricus bisporus tyrosinase using L-DOPA as substrate incubated for 10 mins by spectrophotometric analysis
[15] = Inhibition of Polyporus arcularius tyrosinase using L-DOPA as substrate incubated for 10 mins by spectrophotometric analysis
[16] = target: Retinoic acid receptor alpha (Homo sapiens, UniProt P10276); assay: Antagonist activity at Gal4-RARalpha transfected in HEK293 cells assessed as atRA-induced RARalpha transactivation and measured after 6 hrs by Dual-Light chemiluminiscence assay; assay type: cell-based
Chain of Retinoic acid receptor alpha (P10276 whole entry, the tested form may be a part): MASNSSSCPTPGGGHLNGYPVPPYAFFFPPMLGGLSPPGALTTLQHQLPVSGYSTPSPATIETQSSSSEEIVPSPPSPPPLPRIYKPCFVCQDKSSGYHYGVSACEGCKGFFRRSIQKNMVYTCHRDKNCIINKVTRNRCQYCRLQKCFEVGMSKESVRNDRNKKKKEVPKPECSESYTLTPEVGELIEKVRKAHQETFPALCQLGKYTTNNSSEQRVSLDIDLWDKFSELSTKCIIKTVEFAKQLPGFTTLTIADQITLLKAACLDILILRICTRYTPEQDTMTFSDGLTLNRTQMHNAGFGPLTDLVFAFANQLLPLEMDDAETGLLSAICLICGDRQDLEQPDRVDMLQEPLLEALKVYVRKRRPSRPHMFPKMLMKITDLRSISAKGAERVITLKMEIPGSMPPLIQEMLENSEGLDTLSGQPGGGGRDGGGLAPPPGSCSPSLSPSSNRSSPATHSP

Tyrosinase [17] = target: T1, Tyrosinase; assay: Inhibition of mushroom tyrosinase using L-DOPA as substrate incubated for 30 mins by spectrophotometric analysis

Q: With COc1ccc(/C=C2\Cc3c(cc(OC)c(OC)c3OC)C2=O)cc1O as the compound, how does the IC50 (Tubulin [1]) read?
A: The IC50 was 7560 nM.

Q: What about the pIC50 (HeLa) of the same compound?
A: The pIC50 was 6.77.

Q: And the pIC50 (A549 [2])?
A: Its pIC50 is 6.77.

Q: And the pIC50 (Bel-7402)?
A: Its pIC50 is 6.77.

Q: What about the pIC50 (PC-3) of the same compound?
A: The pIC50 was 6.77.

Q: What about the pIC50 (MDA-MB-231) of the same compound?
A: Its pIC50 is 6.77.

Q: With CN(Cc1ccccc1)Cc1c(O)ccc2c1O/C(=C\c1ccc3c(c1)OCO3)C2=O as the compound, how does the pIC50 [3] read?
A: The pIC50 was 6.51.

Q: With COc1cc(O)c2c(c1)O/C(=C\c1c[nH]c3nc(Cl)ccc13)C2=O as the compound, how does the pIC50 [4] read?
A: Its pIC50 is 5.06.

Q: With O=C1/C(=C/c2c[nH]c3ncccc23)Oc2cc(OCc3cccc(F)c3)ccc21 as the compound, how does the pIC50 [3] read?
A: Its pIC50 is 6.35.

Q: With O=C1/C(=C/c2cc(O)c(O)c(O)c2)Oc2cc(O)cc(O)c21 as the compound, how does the pKi [5] read?
A: The pKi was 5.24.

Q: What about the MIC (Candida parapsilosis) of the same compound?
A: The MIC was 30 µM (≈ 9.07 µg/mL).

Q: With CN(C)c1ccc(/C=C2\Cc3ccccc3C2=O)c([N+](=O)[O-])c1 as the compound, how does the pIC50 (Tyrosinase [6]) read?
A: The pIC50 was 5.09.

Q: With O=C1/C(=C/c2cc(O)c(O)c(O)c2)Oc2ccccc21 as the compound, how does the pKi [5] read?
A: Its pKi is 5.68.

Q: And the MIC (Candida parapsilosis)?
A: The MIC was 53 µM (≈ 14.3 µg/mL).

Q: Which results are given for O=C1/C(=C(\O)c2cccc(Br)c2)Sc2ccccc21?
A: pIC50 [7]: 4.20; pIC50 [8]: 6.46

Q: Which results are given for COc1cc(C2/C(=C/c3ccc([N+](=O)[O-])cc3)C(=O)c3cc(OC)c(OC)c(OC)c32)cc(OC)c1OC (stereo unspecified)?
A: IC50 (Tubulin [1]): 1500 nM; pIC50 (THP-1): 5.40; pIC50 (HCT-116): 5.40; pIC50 (MCF7): 5.40; pIC50 (T47D): 5.40; pIC50 (A549 [9]): 5.40

Q: With COc1cc2c(c(N)c1OC)C(=O)/C(=C/c1cc(C)c(O)c(C)c1)C2 as the compound, how does the pIC50 (NCI/ADR-RES) read?
A: Its pIC50 is 8.70.

Q: What about the pIC50 (MES-SA/Dx5) of the same compound?
A: Its pIC50 is 8.70.

Q: And the pIC50 [10]?
A: The pIC50 was 8.70.

Q: And the pIC50 (HL60/ADR)?
A: The pIC50 was 8.70.

Q: And the pIC50 [11]?
A: Its pIC50 is 8.70.

Q: And the pIC50 (KB 3-1)?
A: Its pIC50 is 8.70.

Q: What about the pIC50 [12] of the same compound?
A: Its pIC50 is 8.70.

Q: What about the IC50 (Tubulin [13]) of the same compound?
A: Its IC50 is 1700 nM.

Q: With COc1ccc2c(c1)C/C(=C\c1ccc(Br)o1)C2=O as the compound, how does the pIC50 [7] read?
A: The pIC50 was 6.74.

Q: And the pIC50 [8]?
A: Its pIC50 is 7.40.

Q: With O=C1/C(=C/c2ccc(O)cc2O)Oc2cccc(O)c21 as the compound, how does the pIC50 (Tyrosinase [14]) read?
A: The pIC50 was 5.40.

Q: What about the pIC50 [15] of the same compound?
A: The pIC50 was 4.47.

Q: With COCCOCOc1cc2c(cc1C13CC4CC(CC(C4)C1)C3)C(=O)/C(=C/c1ccc(C(=O)O)cc1)O2 as the compound, how does the pIC50 [16] read?
A: The pIC50 was 5.35.

Q: With O=C1/C(=C/c2ccc(O)cc2O)Cc2ccccc21 as the compound, how does the pIC50 (Tyrosinase [17]) read?
A: Its pIC50 is 7.47.
